In US11478478B2, “2,3-disubstituted 1-acyl-4-amino-1,2,3,4-tetrahydroquinoline derivatives and their use as bromodomain inhibitors” (GLAXOSMITHKLINE INTELLECTUAL PROPERTY (NO.2) LIMITED, priority 2013, dated 2022):
Where a name gives a salt, the structure may show the parent alone.

target: T1, BRD4 BD2 (Homo sapiens, UniProt O60885, Y97A); assay: TR-FRET binding assay, BRD4 BD2 (BD1-mutated protein); settings: read-out: pIC50 in the BRD4 BD2 assay (converted)
T1 construct: BRD4 (1-477) (Y97A) and (Y390A); made in house; host or cells: E. coli (pET15b vector)
Description: Time Resolved Fluorescence Resonance Energy Transfer (TR-FRET) Assay Binding was assessed using a time resolved fluorescent resonance energy transfer binding assay. This utilises a 6 His purification tag at the N-terminal of the proteins as an epitope for an anti-6 His antibody labeled with Europium chelate (PerkinElmer AD0111) allowing binding of the Europium to the proteins which acts as the donor fluorophore. A small molecule, high affinity binder of the bromodomains BRD2, BRD3, BRD4 and BRDT has been labeled with Alexa Fluor647 (Reference Compound X) and this acts as the acceptor in the FRET pair.
In the absence of a competing compound, excitation of the Europium causes the donor to emit at λ618 nm which excites the Alexa labelled bromodomain binding compound leading to an increased energy transfer that is measurable at λ647 nM. In the presence of a sufficient concentration of a compound that can bind these proteins, the interaction is disrupted leading to a quantifiable drop in fluorescent resonance energy transfer.
The binding of the compounds of formula (I) to Bromodomains BRD2, BRD3, BRD4 and BRDT was assessed using mutated proteins to detect differential binding to either Binding Domain 1 (BD1) or Binding Domain 2 (BD2) on the bromodomain. These single residue mutations in the acetyl lysine binding pocket greatly lower the affinity of the fluoroligand (Reference Compound X) for the mutated domain (>1000 fold selective for the non-mutated domain). Therefore in the final assay conditions, binding of the fluoroligand to the mutated domain cannot be detected and subsequently the assay is suitable to determine the binding of compounds to the single non-mutated bromodomain.
Recombinant Human Bromodomains [(BRD2 (1-473) (Y113A) and (Y386A), BRD3 (1-435) (Y73A) and (Y348A) BRD4 (1-477) (Y97A) and (Y390A) and BRDT (1-397) (Y66A) and (Y309A)] were expressed in E. coli cells (in pET15b vector for BRD2/3/4 and in pET28a vector for BRDT) with a 6-His tag at the N-terminal. The His-tagged Bromodomain pellet was resuspended in 50 mM HEPES (pH7.5), 300 mM NaCl, 10 mM imidazole & 1 μl/ml protease inhibitor cocktail and extracted from the E. coli cells using sonication and purified using a nickel sepharose high performance column, the proteins were washed and then eluted with a linear gradient of 0-500 mM imidazole with buffer 50 mM HEPES (pH7.5), 150 mM NaCl, 500 mM imidazole, over 20 column volumes. Final purification was completed by Superdex 200 prep grade size exclusion column. Purified protein was stored at −80° C. in 20 mM HEPES pH 7.5 and 100 mM NaCl. Protein identity was confirmed by peptide mass fingerprinting and predicted molecular weight confirmed by mass spectrometry.
All assay components were dissolved in buffer composition of 50 mM HEPES pH7.4, 50 mM NaCl, 5% Glycerol, 1 mM DTT and 1 mM CHAPS. The final concentration of bromodomain proteins were 10 nM and the Alexa Fluor647 ligand was at Kd. These components were premixed and 5 μl of this reaction mixture was added to all wells containing 50 nl of various concentrations of test compound or DMSO vehicle (0.5% DMSO final) in Greiner 384 well black low volume microtitre plates and incubated in dark for 30 minutes at rt. 5 μl of detection mixture containing 1.5 nM final concentration anti-6His Europium chelate was added to all wells and a further dark incubation of at least 30 minutes was performed. Plates were then read on the Envision platereader, (λex=317 nm, donor λem=615 nm; acceptor λem=665 nm; Dichroic LANCE dual). Time resolved fluorescent intensity measurements were made at both emission wavelengths and the ratio of acceptor/donor was calculated and used for data analysis. All data was normalized to the mean of 16 high (inhibitor control—Example 11 of WO 2011/054846A1) and 16 low (DMSO) control wells on each plate. A four parameter curve fit of the following form was then applied: y=a+((b−a)/(1+(10^/10^)^d) […]

IC50 [µM]	SMILES
0.1	CC(=O)N1c2ccccc2[C@H](Nc2ccsc2)[C@@H](C)[C@@H]1C (racemic) [Example 12, rac-1-((2S,3R,4R)-2,3-dimethyl-4-(thiophen-3-ylamino)-3,4-dihydroquinolin-1(2H)-yl)ethanone]
0.1	CC(=O)N1c2ccccc2[C@H](Nc2ccc(Cl)cc2)[C@@H](C)[C@@H]1C (racemic) [Example 13, rac-1-((2S,3R,4R)-4-((4-chlorophenyl)amino)-2,3-dimethyl-3,4-dihydroquinolin-1(2H)-yl)ethanone]
0.1	COc1ccc(N[C@H]2c3ccccc3N(C(C)=O)[C@@H](C)[C@@H]2C)cc1 (racemic) [Example 15, rac-1-((2S,3R,4R)-4-((4-methoxyphenyl)amino)-2,3-dimethyl-3,4-dihydroquinolin-1(2H)-yl)ethanone]
0.1	CC(=O)N1c2ccccc2[C@H](Nc2cccc(C)c2)[C@@H](C)[C@@H]1C (racemic) [Example 16, rac-1-((2S,3R,4R)-2,3-dimethyl-4-(m-tolylamino)-3,4-dihydroquinolin-1(2H)-yl)ethanone]
0.1	CC(=O)N1c2ccccc2[C@H](Nc2ccc(C)cc2)[C@@H](C)[C@@H]1C (racemic) [Example 20, rac-1-((2S,3R,4R)-2,3-dimethyl-4-(p-tolylamino)-3,4-dihydroquinolin-1(2H)-yl)ethanone]
0.1	CC(=O)N1c2ccccc2[C@H](Nc2cncc(Cl)c2)[C@@H](C)[C@@H]1C (racemic) [Example 22, rac-1-((2S,3R,4R)-4-((5-chloropyridin-3-yl)amino)-2,3-dimethyl-3,4-dihydroquinolin-1(2H)-yl)ethanone]
1 to 100	CC(=O)N1c2ccccc2[C@H](Nc2ccnc(C)c2)[C@@H](C)[C@@H]1C (racemic) [Example 23, rac-1-((2S,3R,4R)-2,3-dimethyl-4-((2-methylpyridin-4-yl)amino)-3,4-dihydroquinolin-1(2H)-yl)ethanone]
0.1	CC(=O)N1c2ccccc2[C@H](Nc2ccc(C#N)cc2)[C@@H](C)[C@@H]1C1CC1 (racemic) [Example 30, rac-4-(((2S,3R,4R)-1-Acetyl-2-cyclopropyl-3-methyl-1,2,3,4-tetrahydroquinolin-4-yl)amino)benzonitrile]
0.1	CC(=O)N1c2ccccc2[C@H](Nc2ccc(F)cc2)[C@@H](C)[C@@H]1C1CC1 (racemic) [Example 32, rac-1-((2S,3R,4R)-2-Cyclopropyl-4-((4-fluorophenyl)amino)-3-methyl-3,4-dihydroquinolin-1(2H)-yl)ethanone]
1 to 100	CC(=O)N1c2ccccc2[C@H](Nc2cncc(C)n2)[C@@H](C)[C@@H]1C1CC1 (racemic) [Example 48, rac-1-((2S,3R,4R)-2-cyclopropyl-3-methyl-4-((6-methylpyrazin-2-yl)amino)-3,4-dihydroquinolin-1(2H)-yl)ethanone]
1 to 100	CC(=O)N1c2ccccc2[C@H](Nc2ncccc2O)[C@@H](C)[C@@H]1C1CC1 (racemic) [Example 49, rac-1-((2S,3R,4R)-2-cyclopropyyl-4-((3-hydroxypyridin-2-yl)amino)-3-methyl-3,4-dihydroquinolin-1(2H)-yl)ethanone]
1 to 100	CC(=O)N1c2ccccc2[C@H](Nc2cccc(C#N)n2)[C@@H](C)[C@@H]1C1CC1 (racemic) [Example 50, rac-6-(((2S,3R,4R)-1-acetyl-2-cyclopropyl-3-methyl-1,2,3,4-tetrahydroquinolin-4-yl)amino)picolinonitrile]
1 to 100	CC(=O)N1c2ccccc2[C@H](Nc2ccccc2)[C@@H](C)[C@@H]1CC(F)(F)F (racemic) [Example 53, rac-1-((2S,3R,4R)-3-methyl-4-(phenylamino)-2-(2,2,2-trifluoroethyl)-3,4-dihydroquinolin-1(2H)-yl)ethanone]
1 to 100	COC[C@H]1[C@H](C)[C@@H](Nc2ccccc2)c2ccccc2N1C(C)=O (racemic) [Example 54, rac-1-((2R,3R,4R)-2-(methoxymethyl)-3-methyl-4-(phenylamino)-3,4-dihydroquinolin-1(2H)-yl)ethanone]
0.1	CC[C@H]1[C@H](C)[C@@H](Nc2ccc(C#N)cc2)c2cc(F)ccc2N1C(C)=O (racemic) [Example 62, rac-4-(((2S,3R,4R)-1-acetyl-2-ethyl-6-fluoro-3-methyl-1,2,3,4-tetrahydroquinolin-4-yl)amino)benzonitrile]
1 to 100	CC(=O)N1c2cc(O)ccc2[C@H](Nc2cccc(C)n2)[C@@H](C)[C@@H]1C1CC1 (racemic) [Example 65, rac-1-((2S,3R,4R)-2-cyclopropyl-7-hydroxy-3-methyl-4-((6-methylpyridin-2-yl)amino)-3,4-dihydroquinolin-1(2H)-yl)ethanone]
1 to 100	CC(=O)N1c2ccc(S(C)(=O)=O)cc2[C@H](Nc2cccc(C)n2)[C@@H](C)[C@@H]1C1CC1 (racemic) [Example 67, rac-1-((2S,3R,4R)-2-cyclopropyl-3-methyl-4-((6-methylpyridin-2-yl)amino)-6-(methylsulfonyl)-3,4-dihydroquinolin-1(2H)-yl)ethanone]
1 to 100	CC(=O)N1c2ccc(S(=O)(=O)C(C)C)cc2[C@H](Nc2cccc(C)n2)[C@@H](C)[C@@H]1C1CC1 (racemic) [Example 68, rac-1-((2S,3R,4R)-2-cyclopropyl-6-(isopropylsulfonyl)-3-methyl-4-((6-methylpyridin-2-yl)amino)-3,4-dihydroquinolin-1(2H)-yl)ethanone]
0.1	CC(=O)N1c2ccc(N3CCNCC3)cc2[C@H](Nc2ccccc2)[C@@H](C)[C@@H]1C (racemic) [Example 69, rac-1-((2S,3R,4R)-2,3-dimethyl-4-(phenylamino)-6-(piperazin-1-yl)-3,4-dihydroquinolin-1(2H)-yl)ethanone]
0.1	CC(=O)N1c2ccc(N3CCOCC3)cc2[C@H](Nc2ccccc2)[C@@H](C)[C@@H]1C (racemic) [Example 70, rac-1-((2S,3R,4R)-2,3-dimethyl-6-morpholino-4-(phenylamino)-3,4-dihydroquinolin-1(2H)-yl)ethanone]
0.1	CC(=O)N1c2ccc(N3CCNC(C)C3)cc2[C@H](Nc2ccccc2)[C@@H](C)[C@@H]1C (mixture of isomers) [Example 72, 1-((rac-2S,3R,4R)-2,3-dimethyl-6-(3-methylpiperazin-1-yl)-4-(phenylamino)-3,4-dihydroquinolin-1(2H)-yl)ethanone, formate salt]
0.1	CC(=O)N1c2ccc(N3CCC(N)CC3)cc2[C@H](Nc2ccccc2)[C@@H](C)[C@@H]1C (racemic) [Example 74, rac-1-((2S,3R,4R)-6-(4-aminopiperidin-1-yl)-2,3-dimethyl-4-(phenylamino)-3,4-dihydroquinolin-1(2H)-yl)ethanone, hydrochloride]
0.1	CC(=O)N1c2ccc(N3CCOC(C)C3)cc2[C@H](Nc2ccccc2)[C@@H](C)[C@@H]1C (mixture of isomers) [Example 77, 1-((rac-2S,3R,4R)-2,3-dimethyl-6-(2-methylmorpholino)-4-(phenylamino)-3,4-dihydroquinolin-1(2H)-yl)ethanone]
0.1	CC(=O)N1c2ccc(N3CCC(C)C3)cc2[C@H](Nc2ccccc2)[C@@H](C)[C@@H]1C (mixture of isomers) [Example 80, 1-((rac-2S,3R,4R)-2,3-dimethyl-6-(3-methylpyrrolidin-1-yl)-4-(phenylamino)-3,4-dihydroquinolin-1(2H)-yl)ethanone]
